Calls of active or inactive are those of the source. No cut-off for these calls is given here.
Columns and labels:
[1] = target: T1, Mitogen-activated protein kinase 14 (Homo sapiens, UniProt Q16539); assay: Inhibition of p38alpha MAP kinase in whole blood (unknown origin) assessed as lipopolysaccharide-stimulated TNF-alpha release by ELISA
[2] = target: T1, Mitogen-activated protein kinase 14; assay: Inhibition of p38alpha MAP kinase (unknown origin) by ELISA
[3] = target: T1, Mitogen-activated protein kinase 14; details: Blood, 1 uM
[4] = target: Mitogen-activated protein kinase 11 (Homo sapiens) (UniProt Q15759); assay: Inhibition of p38beta MAP kinase (unknown origin)
Mitogen-activated protein kinase 11 (Homo sapiens), sequence (Q15759 whole entry, canonical isoform): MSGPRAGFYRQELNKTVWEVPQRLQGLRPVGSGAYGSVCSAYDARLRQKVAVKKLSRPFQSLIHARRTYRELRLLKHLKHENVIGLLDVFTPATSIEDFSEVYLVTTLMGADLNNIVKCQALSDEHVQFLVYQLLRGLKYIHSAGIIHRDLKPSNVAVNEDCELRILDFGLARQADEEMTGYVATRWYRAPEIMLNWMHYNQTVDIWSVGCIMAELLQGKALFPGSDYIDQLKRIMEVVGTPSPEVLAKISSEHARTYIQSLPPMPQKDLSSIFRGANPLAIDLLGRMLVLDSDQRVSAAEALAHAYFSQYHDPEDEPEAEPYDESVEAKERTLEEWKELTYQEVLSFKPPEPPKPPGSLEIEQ

[5] = target: Casein kinase I isoform epsilon (Homo sapiens) (UniProt P49674); assay: Inhibition of CSNK1E (unknown origin)
Casein kinase I isoform epsilon (Homo sapiens), sequence (P49674 whole entry, looked up, canonical isoform): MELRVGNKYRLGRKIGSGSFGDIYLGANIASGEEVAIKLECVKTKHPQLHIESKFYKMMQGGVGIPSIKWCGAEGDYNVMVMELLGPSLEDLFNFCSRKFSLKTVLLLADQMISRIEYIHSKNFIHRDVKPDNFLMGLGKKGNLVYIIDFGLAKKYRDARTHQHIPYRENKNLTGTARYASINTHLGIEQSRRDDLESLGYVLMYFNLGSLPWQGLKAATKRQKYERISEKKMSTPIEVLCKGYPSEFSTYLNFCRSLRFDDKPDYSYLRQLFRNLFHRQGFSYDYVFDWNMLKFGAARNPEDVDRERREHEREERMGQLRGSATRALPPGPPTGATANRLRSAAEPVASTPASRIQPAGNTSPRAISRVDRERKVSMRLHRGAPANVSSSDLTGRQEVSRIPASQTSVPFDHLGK

[6] = target: T1, Mitogen-activated protein kinase 14; assay: Inhibition of p38alpha MAP kinase in whole blood (unknown origin) assessed as lipopolysaccharide-stimulated TNF-alpha release measuring residual activity at 10 uM by ELISA

T1 sequence (Q16539 whole entry): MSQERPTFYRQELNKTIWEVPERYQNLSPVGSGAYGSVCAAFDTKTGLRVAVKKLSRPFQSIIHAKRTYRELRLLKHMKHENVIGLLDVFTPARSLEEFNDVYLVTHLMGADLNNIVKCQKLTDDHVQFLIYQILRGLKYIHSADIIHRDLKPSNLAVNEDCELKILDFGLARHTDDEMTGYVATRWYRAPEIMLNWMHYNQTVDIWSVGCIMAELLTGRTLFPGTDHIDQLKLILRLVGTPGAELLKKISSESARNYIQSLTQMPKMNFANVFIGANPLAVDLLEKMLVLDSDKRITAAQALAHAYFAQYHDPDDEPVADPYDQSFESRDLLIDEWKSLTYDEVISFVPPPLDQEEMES

IC50 [1] [nM] | IC50 [2] [nM] | Structure (SMILES) | other results
570 | 98 | Cc1cc(F)c(NC(=O)C2CCOC2)cc1Nc1ccc2c(c1)CCc1ccc(OCCN3CCOCC3)cc1C2=O (configuration not stated) | 
270 | 3 | CCOC(=O)c1ccc2c(c1)C(=O)c1ccc(Nc3ccc(F)cc3F)cc1CC2 | 
29 | 3 | O=C(NCCN1CCOCC1)c1ccc2c(c1)C(=O)c1ccc(Nc3ccc(F)cc3F)cc1CC2 | 
64 | 3 | O=C(NCCCl)c1ccc2c(c1)C(=O)c1ccc(Nc3ccc(F)cc3F)cc1CC2 | 
2400 | 2 | O=C(Nc1cc(Nc2ccc3c(c2)CCc2ccc(OCCO)cc2C3=O)ccc1F)c1ccccc1 | 
 | 94 | CC(C)C[C@H](NC(=O)c1ccc2c(c1)C(=O)c1ccc(Nc3ccc(F)cc3F)cc1CC2)C(=O)O | inhibition [3]: inactive
42 | 7 | O=C(Nc1cc(Nc2ccc3c(c2)CCc2ccc(OC[C@H](O)CO)cc2C3=O)ccc1F)c1cccs1 | 
110 | 1 | O=C(Nc1cc(Nc2ccc3c(c2)CCc2ccc(OCCN4CCOCC4)cc2C3=O)ccc1F)c1ccoc1 | 
300 | 2 | CC1(C)OC[C@H](COc2ccc3c(c2)C(=O)c2ccc(Nc4ccc(F)c(NC(=O)c5cccs5)c4)cc2CC3)O1 | 
17 | 9 | O=C(NC(CO)CO)c1ccc2c(c1)C(=O)c1ccc(Nc3ccc(F)cc3F)cc1CC2 | 
95 | 0.7 | O=C(Nc1cc(Nc2ccc3c(c2)CCc2ccc(OCCN4CCOCC4)cc2C3=O)ccc1F)c1cccs1 | 
54 | 5 | COCCNC(=O)c1ccc2c(c1)C(=O)c1ccc(Nc3ccc(F)cc3F)cc1CC2 | 
240 | 1 | O=C(OCCN1CCOCC1)c1ccc2c(c1)C(=O)c1ccc(Nc3ccc(F)cc3F)cc1CC2 | 
29 | 2 | O=C(NCC(O)CO)c1ccc2c(c1)C(=O)c1ccc(Nc3ccc(F)cc3F)cc1CC2 (configuration not stated) | inhibition [4]: Active
19 | 10 | NC(=O)c1ccc2c(c1)C(=O)c1ccc(Nc3ccc(F)cc3F)cc1CC2 | 
18 | 3 | CN(C)CCNC(=O)c1ccc2c(c1)C(=O)c1ccc(Nc3ccc(F)cc3F)cc1CC2 | 
27 | 10 | CN1CCN(CCNC(=O)c2ccc3c(c2)C(=O)c2ccc(Nc4ccc(F)cc4F)cc2CC3)CC1 | 
83 | 2 | O=C(NCCF)c1ccc2c(c1)C(=O)c1ccc(Nc3ccc(F)cc3F)cc1CC2 | 
460 | 7 | COC(=O)[C@H](CC(C)C)NC(=O)c1ccc2c(c1)C(=O)c1ccc(Nc3ccc(F)cc3F)cc1CC2 | 
4100 | 21 | COc1ccc2c(c1)C(=O)c1ccc(Nc3ccc(F)c(NC(=O)c4ccccc4)c3)cc1CC2 | 
18 | 5 | COC(=O)CC[C@H](NC(=O)c1ccc2c(c1)C(=O)c1ccc(Nc3ccc(F)cc3F)cc1CC2)C(=O)OC | 
9000 | 2 | O=C(Nc1ccc(F)c(Nc2ccc3c(c2)CCc2ccc(OCCO)cc2C3=O)c1)c1ccccc1 | 
64 | 14 | CNC(=O)CC[C@H](NC(=O)c1ccc2c(c1)C(=O)c1ccc(Nc3ccc(F)cc3F)cc1CC2)C(=O)NC | 

IC50 [1] [nM] | IC50 [2] [nM] | Structure (SMILES) | other results
260 | 1 | O=C(Nc1cc(Nc2ccc3c(c2)CCc2ccc(OCCN4CCOCC4)cc2C3=O)ccc1F)c1ccccc1 | 
150 | 12 | O=C1c2ccc(Nc3cc(NC(=O)C4CCOC4)c(F)cc3F)cc2CCc2ccc(OCCN3CCOCC3)cc21 (configuration not stated) | 
210 | 2 | O=C(OCCO)c1ccc2c(c1)C(=O)c1ccc(Nc3ccc(F)cc3F)cc1CC2 | 
290 | 4 | O=C(Nc1cc(Nc2ccc3c(c2)CCc2ccccc2C3=O)c(F)cc1F)c1ccccc1 | 
12 |  | O=C(Nc1cc(Nc2ccc3c(c2)CCc2ccc(OCCN4CCOCC4)cc2C3=O)c(F)cc1F)c1ccsc1 | 
50 | 3 | CS(=O)(=O)CCNC(=O)c1ccc2c(c1)C(=O)c1ccc(Nc3ccc(F)cc3F)cc1CC2 | 
32 | 1 | Cc1cc(F)c(NC(=O)c2ccoc2)cc1Nc1ccc2c(c1)CCc1ccc(OCCN3CCOCC3)cc1C2=O | 
36 | 2 | CSCCNC(=O)c1ccc2c(c1)C(=O)c1ccc(Nc3ccc(F)cc3F)cc1CC2 | 
2300 | 29 | CC(=O)Oc1ccc2c(c1)C(=O)c1ccc(Nc3ccc(F)cc3F)cc1CC2 | 
220 | 8 | CCCOC(=O)c1ccc2c(c1)C(=O)c1ccc(Nc3ccc(F)cc3F)cc1CC2 | 
450 | 27 | CC1(C)OC[C@@H](COc2ccc3c(c2)C(=O)c2ccc(Nc4ccc(F)c(NC(=O)c5ccccc5)c4)cc2CC3)O1 | 
 |  | O=C(NCCN1CCOCC1)c1ccc2c(c1)C(=O)c1ccc(Nc3ccc(F)c(NC(=O)c4ccccc4)c3)cc1CC2 | inhibition [5]: Active; inhibition [4]: Active
7600 | 89 | C[C@@H](NC(=O)c1ccc2c(c1)C(=O)c1ccc(Nc3ccc(F)cc3F)cc1CC2)C1CCCCC1 | 
1500 | 20 | O=C1c2ccc(Nc3ccc(F)c(NC(=O)C4CCOC4)c3)cc2CCc2ccc(OCCO)cc21 (configuration not stated) | 
220 | 1 | O=C(Nc1cc(Nc2ccc3c(c2)CCc2ccc(OCCN4CCOCC4)cc2C3=O)c(F)cc1F)c1ccccc1 | 
37 | 3 | CNC(=O)c1ccc2c(c1)C(=O)c1ccc(Nc3ccc(F)cc3F)cc1CC2 | 
 | 44 | O=C1c2ccc(Nc3ccc(F)cc3F)cc2CCc2ccc(C(=O)N3CCOCC3)cc21 | Activity [6]: 39%
26 | 0.3 | O=C(Nc1cc(Nc2ccc3c(c2)CCc2ccc(OCCN4CCOCC4)cc2C3=O)ccc1F)c1ccsc1 | 
27 | 5 | O=C(NCCO)c1ccc2c(c1)C(=O)c1ccc(Nc3ccc(F)cc3F)cc1CC2 | 
160 | 2 | COC(=O)c1ccc2c(c1)C(=O)c1ccc(Nc3ccc(F)cc3F)cc1CC2 | 
19 | 10 | CN1CCN(CCCNC(=O)c2ccc3c(c2)C(=O)c2ccc(Nc4ccc(F)cc4F)cc2CC3)CC1 | 
95 | 6 | CCOC(=O)CNC(=O)c1ccc2c(c1)C(=O)c1ccc(Nc3ccc(F)cc3F)cc1CC2 | 
490 | 11 | O=C(O)c1ccc2c(c1)C(=O)c1ccc(Nc3ccc(F)cc3F)cc1CC2 | 

From ChEMBL document CHEMBL2311263, “Dibenzosuberones as p38 mitogen-activated protein kinase inhibitors with low ATP competitiveness and outstanding whole blood activity” (J Med Chem, 2013)
